Data on six compounds can be found in US7030245B2, “Antidepressant azahetorocyclylmethyl derivatives of 7,8-dihydro-6H-5-oxa-1-aza-phenathrene” (Wyeth, priority 2001, dated 2006).

Counter-ions that a name gives are not always drawn.

Series [1] addresses T1, human 5-HT1A receptors (Homo sapiens, UniProt P08908).
T1 construct: expressed in transfected cells; host or cells: CHO cells, stably transfected
T1 sequence (P08908 1-422): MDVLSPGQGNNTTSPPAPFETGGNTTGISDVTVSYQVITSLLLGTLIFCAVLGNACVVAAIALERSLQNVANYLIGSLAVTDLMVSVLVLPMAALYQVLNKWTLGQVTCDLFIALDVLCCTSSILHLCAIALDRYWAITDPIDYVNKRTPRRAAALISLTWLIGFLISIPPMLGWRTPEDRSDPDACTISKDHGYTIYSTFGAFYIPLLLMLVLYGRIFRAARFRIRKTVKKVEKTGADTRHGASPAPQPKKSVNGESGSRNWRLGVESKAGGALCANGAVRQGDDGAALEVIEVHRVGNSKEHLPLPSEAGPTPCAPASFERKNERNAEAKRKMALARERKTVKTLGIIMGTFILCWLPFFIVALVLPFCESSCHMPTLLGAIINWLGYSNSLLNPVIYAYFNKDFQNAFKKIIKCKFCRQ
Briefly: [3H] 8-OHDPAT displacement, 5-HT1A receptor affinity. The class given is binding. Particulars: displacement of [3H] 8-OHDPAT; CHO cells stably transfected with human 5-HT1A receptors. The text has this: High affinity for the serotonin 5-HT1A receptor was established by testing the claimed compound's ability to displace [^3H] 8-OHDPAT (dipropylaminotetralin) from the 5-HT1A serotonin receptor following a modification of the procedure of Hall et al., J. Neurochem. 44, 1685 (1985) which utilizes CHO cells stably transfected with human 5-HT1A receptors.
(In general: Displacement assays read how much labelled ligand stays bound in the presence of the test substance.)

Series [2] has as its target T2, cloned human 5-HT1A receptors (Homo sapiens, UniProt P08908).
T2 construct: expressed in transfected cells
T2 sequence (P08908 1-422): T1 sequence (P08908 1-422)
In words: 35S-GTPγS binding assay, 5-HT1A function. The class given is biochemical. Particulars: for EC50: 35S-GTPγS binding to membranes containing cloned human 5-HT1A receptors; for Emax: maximum stimulatory effect on 35S-GTPγS binding, value in parentheses. As for the experimental part: Agonist activity at 5-HT1A receptors was established by using a ^35S-GTPγS binding assay similar to that used by Lazareno and Birdsall (Br. J. Pharmacol. 109: 1120, 1993), in which the test compound's ability to affect the binding of ^35S-GTPγS to membranes containing cloned human 5-HT1A receptors was determined. Agonists produce an increase in binding whereas antagonists produce no increase but rather reverse the effects of the standard agonist 8-OHDPAT. The test compound's maximum stimulatory effect is represented as the Emax, while its potency is defined by the EC50.

For series [3], the target named is T3, serotonin transporter (Rattus norvegicus, UniProt P31652).
T3 construct: displace ^3H-paroxetine from male rat frontal cortical membranes; from tissue; host or cells: male rat frontal cortex membranes
T3 sequence (P31652 whole entry): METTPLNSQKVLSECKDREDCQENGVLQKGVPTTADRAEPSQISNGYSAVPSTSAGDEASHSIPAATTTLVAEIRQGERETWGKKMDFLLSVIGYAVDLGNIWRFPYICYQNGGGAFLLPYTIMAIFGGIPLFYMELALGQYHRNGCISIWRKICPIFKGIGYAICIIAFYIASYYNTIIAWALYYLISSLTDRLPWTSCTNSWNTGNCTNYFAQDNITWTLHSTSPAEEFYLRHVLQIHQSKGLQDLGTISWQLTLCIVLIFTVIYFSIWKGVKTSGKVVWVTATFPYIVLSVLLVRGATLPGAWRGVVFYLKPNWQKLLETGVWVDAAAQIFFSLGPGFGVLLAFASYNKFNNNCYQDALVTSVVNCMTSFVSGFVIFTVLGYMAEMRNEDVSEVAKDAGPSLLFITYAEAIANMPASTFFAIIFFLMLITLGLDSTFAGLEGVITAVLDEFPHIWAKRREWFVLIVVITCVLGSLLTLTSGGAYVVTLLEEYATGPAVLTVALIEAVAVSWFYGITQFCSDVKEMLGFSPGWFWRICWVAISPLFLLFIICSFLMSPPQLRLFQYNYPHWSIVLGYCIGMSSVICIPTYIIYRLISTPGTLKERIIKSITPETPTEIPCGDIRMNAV
In words: 3H-paroxetine displacement, serotonin transporter affinity. In kind it is binding.

As for `Fc1ccc2[nH]cc(C3=CCN(C[C@H]4CCc5ccc6ncccc6c5O4)CC3)c2c1` (as salt: fumarate) [Example 3, (6R)-6-[4-(5-Fluoro-1H-indol-3-yl)-3,6-dihydro-2H-pyridin-1-ylmethyl]-7,8-dihydro-6H-5-oxa-1aza-phenanthrene], the melting point turned out to be 210 °C.
Regarding `Fc1ccc2[nH]cc(C3=CCN(CC4CCc5ccc6ncccc6c5O4)CC3)c2c1` (centres unmarked) (as salt: oxalate) [Example 1, 6-[4-(5-Fluoro-1H-indol-3-yl)-3,6-dihydro-2H-pyridin-1-ylmethyl]-7,8-dihydro-6H-5-oxa-1aza-phenanthrene], the melting point was determined as 148 °C.
`Fc1ccc2[nH]cc(C3=CCN(C[C@@H]4CCc5ccc6ncccc6c5O4)CC3)c2c1` (as salt: oxalate) [Example 2, (6S)-6-[4-(5-Fluoro-1H-indol-3-yl)-3,6-dihydro-2H-pyridin-1-ylmethyl]-7,8-dihydro-6H-5-oxa-1aza-phenanthrene] displayed a melting point of 210 °C.
As for `Fc1ccc2[nH]cc(C3=CCN(CC4CCc5ccc6ncccc6c5O4)CC3)c2c1` (centres unmarked) [Example 1, 6-[4-(5-Fluoro-1H-indol-3-yl)-3,6-dihydro-2H-pyridin-1-ylmethyl]-7,8-dihydro-6H-5-oxa-1aza-phenanthrene], the Ki was 60.9 nM in series [1] and 8 nM in series [3]. Besides, the EC50 in series [2] is 103 nM. Further, the Emax in series [2] amounted to 49%.
Take `Fc1ccc2[nH]cc(C3=CCN(C[C@@H]4CCc5ccc6ncccc6c5O4)CC3)c2c1` [Example 2, (6S)-6-[4-(5-Fluoro-1H-indol-3-yl)-3,6-dihydro-2H-pyridin-1-ylmethyl]-7,8-dihydro-6H-5-oxa-1aza-phenanthrene]: the Ki in series [1] is 88.6 nM; in series [3], 5.96 nM. Also, the Emax in series [2] turned out to be 5%.
With `Fc1ccc2[nH]cc(C3=CCN(C[C@H]4CCc5ccc6ncccc6c5O4)CC3)c2c1` [Example 3, (6R)-6-[4-(5-Fluoro-1H-indol-3-yl)-3,6-dihydro-2H-pyridin-1-ylmethyl]-7,8-dihydro-6H-5-oxa-1aza-phenanthrene], the Ki in series [1] stood at 82.3 nM; in series [3], 6 nM. In series [2], this compound displayed an EC50 of 78.9 nM. The Emax in series [2] is 52%.

By melting point is commonly meant the temperature of the solid-liquid transition. For orientation: Ki means a measure of affinity in units of concentration, obtained from inhibition or displacement. A lower Ki goes with a stronger hold on the target. The EC50 is the midpoint of the concentration-response curve. A higher EC50 goes with a need for much substance. As usually defined, the Emax is the size of the effect at its maximum, as opposed to the concentration needed.
